According to patent US20260102420A1, “CANCER IMMUNOTHERAPY” (Hoffmann-La Roche Inc., priority 2022, published 2026):

Key:
[1] = biological target: T1, UAP1 (Homo sapiens, UniProt Q16222); assay: Detection of UDP-HexNAc by LC-MS in MKN45 cell lysates after 2h treatment; assay type: cell-based; conditions: MKN45 pre-treated for 2h, FIG. 9A
T1 construct: endogenous in cells; host or cells: MKN45 (human gastric adenocarcinoma cell line), wild type
Protocol: (§1) FIGS. 9A, 9B, 9C, 9D, and 9E. UAP1 inhibition with Ac4Glc2Bz in tumor cells improves T cell-mediated killing and T cell activation. FIG. 9A: Detection of UDP-HexNAc in MKN45 cell lysates after 2h treatment with Ac4Glc2Bz. FIGS. 9B and 9C: MKN45 were pre-treated with the indicated concentrations of Ac4Glc2Bz for 2 h. Afterwards, the compound was removed from the culture and T cells were added alongside TCBs at the indicated concentrations. Graphs show the % of remaining tumor cells after 105h from co-culture. DP47 TCB was used as negative control. FIGS. 9D and 9E: Flow cytometry of CD3+ T cells from the experiments in FIGS. 9B and 9C. T cell activation was assessed as previously described.
For the preparation of calibration samples Uridine-5′-diphospho-N-acetylglucosamine sodium salt was dissolved in an 80/20 mixture of water/methanol (v/v) to a concentration of 1.00 mg/ml. A stock solution for the preparation of QC samples was prepared separately using the same procedure with separate weighing of the reference substance. Further dilutions were done in water. For calibration and quality control samples, eight and three different concentrations of Uridine-5′-diphospho-N-acetylglucosamine (UDP HExNAc) spiked into phosphate-buffered saline (PBS) were used, respectively. Two different calibration ranges were applied. […]

[2] = system: MKN45; assay: T cell-mediated killing assay, MKN45 pre-treated with compound, co-culture with T cells and TCBs; assay type: cell-based, human; conditions: MKN45 pre-treated 2 h, compound removed, T cells and TCBs added; FIGS. 9B and 9C
Protocol: as §1
25000 MKN45-nuclight red (NLR), 20000 A549-hCEA and 10000 B16F10-NLR tumor cells (wt or UAP1 ko) were seeded in one well of a 96 well-plate. Afterwards TCBs or siinfekl were given at the indicated concentrations. Pan T cells or PBMCs, mouse splenocytes (from C57/BL6 or OT-I mice) were immediately added at the indicated E:T ratios. Co-cultures were incubated at 37° C. and 5% C02 in the Incucye S3 instrument (Sartorius) for the indicated time. […] For MKN45-NLR and B16F10-NLR, T cell-mediated killing was calculated based on the red fluorescent signal coming from the tumor cells. All values were first transformed to fold-change to time 0, and % specific lysis was calculated as follows: […]

[3] = system: CD3+ T cells; assay: T cell activation (CD25/CD69) by flow cytometry after co-culture with pre-treated MKN45; assay type: cell-based, human; conditions: CD3+ T cells from the same co-cultures; FIGS. 9D and 9E
Protocol: as §1
T cell-mediated killing assay was performed as described above. At the end of the experiment, T cells were collected from the co-culture plates and subjected to immunofluorescence for the following markers: CD3, CD8, CD25, CD69 and Near-IR live/dead staining (Thermo Scientific). Cells were gated on live CD3^+ cells and % Activated cells was calculated as such: […]. For the proliferation assay, T cells were pre-stained with CFSE (Biolegend) according to manufacturer's instructions, and then used in a T cell-mediated killing assay with either MKN45-NLR wt or MKN45-NLR KO cells for 4 days. Afterwards, cells were harvested and CFSE was assessed by FACS. […]

T1 sequence (Q16222 whole entry): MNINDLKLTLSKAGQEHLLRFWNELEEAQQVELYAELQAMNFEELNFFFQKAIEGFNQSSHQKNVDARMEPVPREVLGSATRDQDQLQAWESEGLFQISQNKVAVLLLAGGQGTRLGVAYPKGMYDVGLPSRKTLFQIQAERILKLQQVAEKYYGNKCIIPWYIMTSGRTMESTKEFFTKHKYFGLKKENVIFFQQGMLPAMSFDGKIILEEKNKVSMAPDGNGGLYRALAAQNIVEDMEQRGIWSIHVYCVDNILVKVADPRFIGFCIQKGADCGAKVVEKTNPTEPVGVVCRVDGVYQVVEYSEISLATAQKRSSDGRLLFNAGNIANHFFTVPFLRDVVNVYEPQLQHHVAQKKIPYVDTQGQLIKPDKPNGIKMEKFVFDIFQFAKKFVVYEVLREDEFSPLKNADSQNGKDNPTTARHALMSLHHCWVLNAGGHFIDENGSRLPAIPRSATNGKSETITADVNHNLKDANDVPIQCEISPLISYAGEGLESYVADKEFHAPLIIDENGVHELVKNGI

CC(=O)OCC1OC(OC(C)=O)C(NC(=O)c2ccccc2)C(OC(C)=O)[C@@H]1OC(C)=O (stereo partly drawn) [Ac4Glc2Bz]
inhibition of UAP1 (UDP-HexNAc detection) [1]: dose-dependent inhibition of UAP1 | T cell mediated killing [2]: increased T cell mediated killing | T cell activation [3]: increased
